Patent US12246011B2, “Radiation mitigator and method of use thereof” (Georgetown University, priority 2016, dated 2025)

Tests used:
[1] = system: YAMC (normal colonic epithelial cell line); test: Colony forming assay (cell survival) after 4 Gy IR; type: cell-based, Murine; details: treatment 24 h post-IR at 10 μM, 100 μM and 1 mM, colonies counted at end of 96 h
Description: (§1) Gamma radiation: YAMC (normal colonic epithelial cell line) were exposed to 4 Gy gamma ionizing radiation (IR) with air pumped into the chamber during exposure. A Gammacell 40 ^137Cs gamma irradiator was used with a dose rate of 0.8 Gy IR per minute. Dosimetry measurements were performed using Fricke Dosimetry systems. Measured absorbance dose was: Central Dose Rate (0.790 Gy/min±2.9%); 3 o'clock position (0.804 Gy/min±3.8%); and 7 o'clock position (0.808 Gy/min±2.7%). The experiments were performed within 6 months of the dosimetry analysis.
Colony forming assay: Colony forming assay is universally recognized as the gold standard method for measuring the effects of radiation, chemotherapeutic drugs on cell viability, and cell survival. […] At the end of 96 h, cells were fixed and counted for number of colonies formed. The number of colonies formed represents the number of cells survived.
as §1, with “The experiments were performed within 6 months of the dosimetry analysis.” left out

C57BL/6 mice = test: Barrier function study (intestinal epithelial permeability to FITC-dextran) after 14 Gy TBI; type: in vivo; details: three doses of 10 mg/kg body weight per day beginning 24 h post-IR, serum FITC 5 d post-IR
Description: as §1, with “radiation: 7-week-old C57BL/6 mice” for “radiation: YAMC (normal colonic epithelial cell line)”, “to total body irradiation (TBI) 14” for “to 4”, “chamber during.” for “chamber during exposure.”, “analysis. All IR treatments were begun in the morning. […] All animals received easy access to liquid gel food and water in the cage.” for “analysis.”
Barrier function study: Two hours before euthanasia (5 d post-IR), each mouse was orally administered (gavage) with 100 μL of FITC-dextran (FITC dextran 4; MW 4000) at a dose of 80 mg/100 g body weight. Serum analysis of FITC concentration was performed in triplicate using Synergy Bio TEK plate reader.
Gamma radiation: 7-week-old C57BL/6 mice were exposed to total body irradiation (TBI) 14 Gy gamma ionizing radiation (IR) with air pumped into the chamber during. A Gammacell 40 ^137Cs gamma irradiator was used with a dose rate of 0.8 Gy IR per minute. […] Measured absorbance dose was: Central Dose Rate (0.790 Gy/min±2.9%); 3 o'clock position (0.804 Gy/min±3.8%); and 7 o'clock position (0.808 Gy/min±2.7%). […]

[2] = system: YAMC (normal colonic epithelial cell line); test: Clonogenic assay for self-renewal (spheroid formation) after 4 Gy IR; type: cell-based, Murine; details: treatment 24 h post-IR at 10 μM, 100 μM and 1 mM, spheroids counted at end of 192 h
Description: as §1
Clonogenic assay for self-renewal: Self-renewal is the hallmark for stem cells or stem-like cells. Clonogenic assay or clonal expansion of single cell into spheroids/organoids is the reputed method to analyze cell self-renewal. […] At the end of 192 h, spheroids were counted for quantitative assessment of the number of spheroids formed.
Gamma radiation: YAMC (normal colonic epithelial cell line) were exposed to 4 Gy gamma ionizing radiation (IR) with air pumped into the chamber during exposure. […] Measured absorbance dose was: Central Dose Rate (0.790 Gy/min±2.9%); 3 o'clock position (0.804 Gy/min±3.8%); and 7 o'clock position (0.808 Gy/min±2.7%). […]
Clonogenic assay for self-renewal: Self-renewal is the hallmark for stem cells or stem-like cells. […] At the end of 192 h, spheroids were counted for quantitative assessment of the number of spheroids formed. […]

[3] = largest among ARBs; cited from earlier work

Row | Structure (SMILES) | YAMC cell survival (number of colonies formed) compared to vehicle treatment [1] | intestinal epithelial permeability to FITC-dextran versus vehicle control (C57BL/6 mice) | self-renewal ability of YAMC cells (number of spheroids formed) compared to vehicle treatment [2] | volume of distribution [3]
1 | CCCc1nc2c(C)cc(-c3nc4ccccc4n3C)cc2n1Cc1ccc(-c2ccccc2C(=O)O)cc1 [telmisartan, Telmisartan] | significantly increased | essentially the same | significantly increased | 500 L
2 | CC1(C)CC(O)CC(C)(C)N1[O] [tempol, 4-hydroxy-2,2,6,6-tetramethylpiperidin-1-oxyl] | significantly increased | essentially the same | significantly increased | –
